Measurements taken from EPA's ToxRefDB 2.

Assays:
rabbit = details: Prenatal developmental toxicity study, new zealand white, Oral, Gavage/Intubation, dose end: 19 GD
rat [1] = details: Subchronic oral toxicity in rodents, sprague dawley, Feed, dose end: 90 day, group: systemic
dog = details: Subchronic oral toxicity in nonrodent, beagle, Feed, dose end: 90 day, group: systemic
rat [2] = details: Multigenerational reproductive toxicity study, other, Oral, Feed, dose end: 2 generation
rat [3] = details: Prenatal developmental toxicity study, sprague dawley, Oral, Gavage/Intubation, dose end: 16 GD
rat [4] = details: Prenatal developmental toxicity study, sprague dawley, Oral, Gavage/Intubation, dose end: 16 GD; remark: listed apart in the source
rat [5] = details: Prenatal developmental toxicity study, sprague dawley, Oral, Feed, dose end: 16 GD
rat [6] = details: Combined chronic toxicity/carcinogenicity, sprague dawley, Oral, Feed, dose end: 2 year, group: systemic
[7] = group: developmental, systemic / in life observation / body weight / fetal weight
[8] = group: maternal, reproductive / reproductive performance / aborted / aborted + reproductive / reproductive performance / resorptions / resorptions + systemic…
[9] = systemic / pathology microscopic / stomach / hyperplasia
[10] = group: offspring, developmental / offspring survival late / viability index / viability index
[11] = group: offspring, developmental / offspring survival late / viability index / viability index + systemic / in life observation / body weight / offspring (pup…
[12] = group: parental, systemic / pathology microscopic / liver / hypertrophy + systemic / in life observation / body weight / body weight + systemic / pathology …
[13] = group: parental, systemic / pathology microscopic / liver / hypertrophy + systemic / in life observation / mortality / mortality
[14] = group: reproductive, reproductive / reproductive performance / gestational length / gestational length
[15] = group: reproductive, reproductive / reproductive performance / gestational length / gestational length + reproductive / offspring survival early / litter size / …
[16] = group: developmental, developmental / developmental malformation / kidney / small renal papilla + developmental / developmental malformation / ureter / distended
[17] = group: developmental, developmental / developmental malformation / kidney / small renal papilla + developmental / developmental malformation / ureter / distended…
[18] = group: maternal, systemic / in life observation / body weight / body weight gain + systemic / in life observation / food consumption / food consumption + …
[19] = group: developmental, developmental / developmental malformation / kidney / absent renal papilla + developmental / developmental malformation / ureter / …
[20] = group: maternal, systemic / organ weight / liver / relative to body weight
[21] = group: maternal, systemic / organ weight / liver / relative to body weight + systemic / in life observation / body weight / body weight gain + systemic / in …
[22] = group: developmental, developmental / developmental malformation / bone / extra ossification site + developmental / developmental malformation / bone / incomplete…
[23] = group: maternal, reproductive / reproductive performance / resorptions / resorptions + systemic / in life observation / food consumption / food consumption…
[24] = systemic / organ weight / liver / relative to body weight + systemic / pathology microscopic / liver / hypertrophy
[25] = systemic / organ weight / liver / relative to body weight + systemic / pathology microscopic / liver / hypertrophy + systemic / clinical …

C[Si](Cn1cncn1)(c1ccc(F)cc1)c1ccc(F)cc1 [Flusilazole]
LEL (rabbit; [7]): 35 mg/kg/day
LOAEL (rabbit; [7]): 35 mg/kg/day
NEL (rabbit; [7]): 12 mg/kg/day
NOAEL (rabbit; [7]): 12 mg/kg/day
LEL (rabbit; [8]): 35 mg/kg/day
LOAEL (rabbit; [8]): 35 mg/kg/day
NEL (rabbit; [8]): 12 mg/kg/day
NOAEL (rabbit; [8]): 12 mg/kg/day
LOAEL (rat [1]; systemic / clinical chemistry / cholesterol / cholesterol + systemic / pathology microscopic / urinary bladder / hyperplasia): 27 mg/kg/day
NOAEL (rat [1]; systemic / clinical chemistry / cholesterol / cholesterol + systemic / pathology microscopic / urinary bladder / hyperplasia + systemic / …): 9 mg/kg/day
LEL (rat [1]; systemic / in life observation / body weight / body weight): 11 mg/kg/day
NEL (rat [1]; systemic / in life observation / body weight / body weight + systemic / clinical chemistry / cholesterol / cholesterol + systemic / organ …): 2 mg/kg/day
NOAEL (dog; systemic / organ weight / liver / absolute + systemic / organ weight / liver / relative to body weight + systemic / clinical chemistry / …): 0.9 mg/kg/day
LOAEL (dog; systemic / organ weight / liver / absolute + systemic / organ weight / liver / relative to body weight + systemic / pathology microscopic / …): 4.3 mg/kg/day
LEL (dog; [9]): 0.9 mg/kg/day
NEL (dog; [9]): < 0.9 mg/kg/day
NEL (rat [2]; [10]): 3.5 mg/kg/day
NOAEL (rat [2]; [10]): 3.5 mg/kg/day
LEL (rat [2]; [11]): 17.5 mg/kg/day
LOAEL (rat [2]; [11]): 17.5 mg/kg/day
LEL (rat [2]; [12]): 3.5 mg/kg/day
LOAEL (rat [2]; [12]): 3.5 mg/kg/day
NEL (rat [2]; [13]): 0.35 mg/kg/day
NOAEL (rat [2]; [13]): 0.35 mg/kg/day
NEL (rat [2]; [14]): 3.5 mg/kg/day
NOAEL (rat [2]; [14]): 3.5 mg/kg/day
LEL (rat [2]; [15]): 17.5 mg/kg/day
LOAEL (rat [2]; [15]): 17.5 mg/kg/day
LEL (rat [3]; [16]): 10 mg/kg/day
LOAEL (rat [3]; [16]): 10 mg/kg/day
NEL (rat [3]; [17]): 2 mg/kg/day
NOAEL (rat [3]; [17]): 2 mg/kg/day
LEL (rat [3]; [18]): 100 mg/kg/day
LOAEL (rat [3]; [18]): 100 mg/kg/day
NEL (rat [3]; [18]): 10 mg/kg/day
NOAEL (rat [3]; [18]): 10 mg/kg/day
LEL (rat [4]; [19]): 0.4 mg/kg/day
LOAEL (rat [4]; [19]): 0.4 mg/kg/day
NEL (rat [4]; [19]): < 0.4 mg/kg/day
NOAEL (rat [4]; [19]): < 0.4 mg/kg/day
LEL (rat [4]; [20]): 50 mg/kg/day
LOAEL (rat [4]; [20]): 50 mg/kg/day
NEL (rat [4]; [21]): 10 mg/kg/day
NOAEL (rat [4]; [21]): 10 mg/kg/day
LOAEL (rat [5]; [22]): 300 ppm
NEL (rat [5]; [22]): 50 ppm
NOAEL (rat [5]; [22]): 100 ppm
LEL (rat [5]; group: developmental, developmental / developmental malformation / bone / extra ossification site + developmental / developmental malformation / bone / unossified): 100 ppm
LOAEL (rat [5]; group: maternal, reproductive / reproductive performance / resorptions / resorptions + systemic / in life observation / food consumption / food consumption): 300 ppm
LEL (rat [5]; [23]): 300 ppm
NEL (rat [5]; [23]): 100 ppm
NOAEL (rat [5]; [23]): 100 ppm
LEL (rat [6]; [24]): 2.6 mg/kg/day
LOAEL (rat [6]; [24]): 2.6 mg/kg/day
NEL (rat [6]; [25]): 0.53 mg/kg/day
NOAEL (rat [6]; [25]): 0.53 mg/kg/day
